Source: patent publication US12606541B2, “PPARg modulators and methods of use” (Eisai R&D Management Co., Ltd., priority 2020, dated 2026)

target: T1, His6-TEV-PPARγ-(234-505) (Homo sapiens, UniProt P37231); experiment: TR-FRET Assay to Measure Co-R Peptide Recruitment to PPARγ; format: biochemical; conditions: Co-R peptide recruitment to PPARγ; read-out: TR-FRET AC50
T1 construct: The His6-TEV-PPARγ-(234-505) protein for assay was expressed and purified; TEV cleavage site (N); made in house
T1 sequence (P37231 234-505): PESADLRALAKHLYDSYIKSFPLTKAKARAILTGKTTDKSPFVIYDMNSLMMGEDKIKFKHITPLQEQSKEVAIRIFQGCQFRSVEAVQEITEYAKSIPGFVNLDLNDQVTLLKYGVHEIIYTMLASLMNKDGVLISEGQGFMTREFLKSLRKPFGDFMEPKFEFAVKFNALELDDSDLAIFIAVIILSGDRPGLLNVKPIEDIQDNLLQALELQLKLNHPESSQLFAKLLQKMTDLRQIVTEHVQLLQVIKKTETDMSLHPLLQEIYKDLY
Procedure: TR-FRET Assay to Measure Co—R Peptide Recruitment to PPARγ
The 2× detection solution contained anti-6×His-Terbium antibody (CisBio) and FITC labeled Co—R peptide (SMRT-ID2 from New England Peptide) at final concentrations of 5 and 200 nM respectively.
In these assay plates, the positive control in column 24 contained 500 nM (final) T0070907 and the negative control in column 23 contained an identical volume of DMSO. Then, 5 μL of 2+ protein working stock or controls were added to the plate and incubated for 20 minutes at room temperature. Reagents additions were performed with either a Combi (Thermo) or Mantis (Formulatory) pipetting device. The incubation was followed by addition of 5 μL of the 2× detection solution. Plates were covered, centrifuged, and incubated for an additional hour. The TR-FRET data was recorded with an Envision plate reader (Perkin Elmer), using settings recommended by Thermo Fisher. The TR-FRET signal of the positive and negative control's recruitment of FITC-Co—R peptide was used to normalize the TR-FRET signal to percent response and to determine the assay Z prime. Experiments were performed in triplicate and analyzed in GraphPad Prism 7.

| AC50 [nM] | SMILES |
| --- | --- |
| > 1000 | CN(C)CCNC(=O)C1CCN(C(=O)c2cc(-c3ccncc3)[nH]n2)CC1 [N-[2-(dimethylamino)ethyl]-1-[5-(pyridin-4-yl)-1H-pyrazole-3-carbonyl]piperidine-4-carboxamide] |
| > 1000 | COc1cc(-c2cc(C(=O)N3CCC(C(=O)NC4CS(=O)(=O)Cc5ccccc54)CC3)n[nH]2)c(Cl)cn1 (stereo not drawn) [1-[5-(5-chloro-2-methoxypyridin-4-yl)-1H-pyrazole-3-carbonyl]-N-(2,2-dioxo-3,4-dihydro-1H-2λ^6-benzothiopyran-4-yl)piperidine-4-carboxamide] |
| > 1000 | CCC(CC)NC(=O)C1CCN(C(=O)c2cc(-c3ccncc3)[nH]n2)CC1 [N-(pentan-3-yl)-1-[5-(pyridin-4-yl)-1H-pyrazole-3-carbonyl]piperidine-4-carboxamide] |
| > 1000 | COc1cc(-c2cc(C(=O)N3CCC(C(=O)NC(C)c4ncccn4)CC3)n[nH]2)c(Cl)cn1 (stereo not drawn) [1-[5-(5-chloro-2-methoxypyridin-4-yl)-1H-pyrazole-3-carbonyl]-N-[1-(pyrimidin-2-yl)ethyl]piperidine-4-carboxamide] |
| > 1000 | O=C(N[C@@H]1CCN(Cc2ccccc2)C1)C1CCN(C(=O)c2cc(-c3ccncc3)[nH]n2)CC1 [N-[(3R)-1-benzylpyrrolidin-3-yl]-1-[5-(pyridin-4-yl)-1H-pyrazole-3-carbonyl]piperidine-4-carboxamide] |
| > 1000 | COc1ccc(NC(=O)C2CCN(C(=O)c3cc(-c4ccncc4)[nH]n3)CC2)cc1 [N-(4-methoxyphenyl)-1-[5-(pyridin-4-yl)-1H-pyrazole-3-carbonyl]piperidine-4-carboxamide] |
| > 1000 | COc1cc(-c2cc(C(=O)N3CCC(C(=O)NCc4cc(C#N)ccn4)CC3)n[nH]2)c(Cl)cn1 [1-[5-(5-chloro-2-methoxypyridin-4-yl)-1H-pyrazole-3-carbonyl]-N-[(4-cyanopyridin-2-yl)methyl]piperidine-4-carboxamide] |
| > 1000 | Cc1cc(CNC(=O)C2CCN(C(=O)c3cc(-c4ccncc4)[nH]n3)CC2)cc(C)n1 [N-[(2,6-dimethylpyridin-4-yl)methyl]-1-[5-(pyridin-4-yl)-1H-pyrazole-3-carbonyl]piperidine-4-carboxamide] |
| > 1000 | COc1cc(-c2cc(C(=O)N3CCC(C(=O)NCc4ccc(C)nc4)CC3)n[nH]2)c(Cl)cn1 [1-[5-(5-chloro-2-methoxypyridin-4-yl)-1H-pyrazole-3-carbonyl]-N-[(6-methylpyridin-3-yl)methyl]piperidine-4-carboxamide] |
| > 1000 | O=C(NCc1ccc2c(c1)OCO2)C1CCN(C(=O)c2cc(-c3ccncc3)[nH]n2)CC1 [N-[(2H-1,3-benzodioxol-5-yl)methyl]-1-[5-(pyridin-4-yl)-1H-pyrazole-3-carbonyl]piperidine-4-carboxamide] |
| > 1000 | COc1cc(-c2cc(C(=O)N3CCC(C(=O)Nc4cc(-c5ccccc5)[nH]n4)CC3)n[nH]2)c(Cl)cn1 [1-[5-(5-chloro-2-methoxypyridin-4-yl)-1H-pyrazole-3-carbonyl]-N-(5-phenyl-1H-pyrazol-3-yl)piperidine-4-carboxamide] |
| > 1000 | O=C(O)COc1cc(NC(=O)C2CCN(C(=O)c3cc(-c4ccncc4)[nH]n3)CC2)ccc1Cl [2-(2-chloro-5-{1-[5-(pyridin-4-yl)-1H-pyrazole-3-carbonyl]piperidine-4-amido}phenoxy)acetic acid] |
| > 1000 | COc1cc(-c2cc(C(=O)N3CCC(C(=O)NCc4nnc5ccccn45)CC3)n[nH]2)c(Cl)cn1 [1-[5-(5-chloro-2-methoxypyridin-4-yl)-1H-pyrazole-3-carbonyl]-N-({[1,2,4]triazolo[4,3-a]pyridin-3-yl}methyl)piperidine-4-carboxamide] |
| > 1000 | Cc1ccc(NC(=O)C2CCN(C(=O)c3cc(-c4ccncc4)[nH]n3)CC2)cc1 [N-(4-methylphenyl)-1-[5-(pyridin-4-yl)-1H-pyrazole-3-carbonyl]piperidine-4-carboxamide] |
| > 1000 | COc1cc(-c2cc(C(=O)N3CCC(C(=O)Nc4nc(C)cn4C)CC3)n[nH]2)c(Cl)cn1 [1-[5-(5-chloro-2-methoxypyridin-4-yl)-1H-pyrazole-3-carbonyl]-N-(1,4-dimethyl-1H-imidazol-2-yl)piperidine-4-carboxamide] |

More lines, now with the values behind:

| SMILES | AC50 [nM] |
| --- | --- |
| COc1cc(-c2cc(C(=O)N3CC4CC3CC4C(=O)NCc3cccc(Cl)c3)n[nH]2)c(F)cn1 (stereo not drawn) [N-[(3-chlorophenyl)methyl]-2-[5-(5-fluoro-2-methoxypyridin-4-yl)-1H-pyrazole-3-carbonyl]-2-azabicyclo[2.2.1]heptane-5-carboxamide] | > 1000 |
| COCC1(C(=O)NCc2cccc(Cl)c2)CCN(C(=O)c2cc(-c3cc(OC)ncc3Cl)[nH]n2)CC1 [1-[5-(5-chloro-2-methoxypyridin-4-yl)-1H-pyrazole-3-carbonyl]-N-[(3-chlorophenyl)methyl]-4-(methoxymethyl)piperidine-4-carboxamide] | > 1000 |
| COc1cc(-c2cc(C(=O)N3CC[C@H](C(=O)NCC45CC(CN4CC(C)(C)F)C5)CC34CC4)n[nH]2)c(F)cn1 | > 1000 |
| CCCN(C)C(=O)C1CCN(C(=O)c2cc(-c3ccncc3)[nH]n2)CC1 [N-methyl-N-propyl-1-[5-(pyridin-4-yl)-1H-pyrazole-3-carbonyl]piperidine-4-carboxamide] | > 1000 |
| COc1cc(-c2cc(C(=O)N3CCC(C(=O)NCC4(O)CCC4)CC3)n[nH]2)c(Cl)cn1 [1-[5-(5-chloro-2-methoxypyridin-4-yl)-1H-pyrazole-3-carbonyl]-N-[(1-hydroxycyclobutyl)methyl]piperidine-4-carboxamide] | > 1000 |
| COc1cc(-c2cc(C(=O)N3CCC(C(=O)NC4CCC5(CCCN5)CC4)CC3)n[nH]2)c(F)cn1 (stereo not drawn) | > 1000 |
| COc1cc(-c2cc(C(=O)N3CCC(C(=O)NC4CCN(C5CCC5)CC4)CC3)n[nH]2)c(Cl)cn1 [1-[5-(5-chloro-2-methoxypyridin-4-yl)-1H-pyrazole-3-carbonyl]-N-(1-cyclobutylpiperidin-4-yl)piperidine-4-carboxamide] | > 1000 |
| COc1cc(-c2cc(C(=O)N3CCC(C(=O)NCc4ccc5ncnn5c4)CC3)n[nH]2)c(Cl)cn1 [1-[5-(5-chloro-2-methoxypyridin-4-yl)-1H-pyrazole-3-carbonyl]-N-({[1,2,4]triazolo[1,5-a]pyridin-6-yl}methyl)piperidine-4-carboxamide] | > 1000 |
| COc1cc(-c2cc(C(=O)N3CC[C@H](C(=O)NC4CCS(=N)(=O)CC4)CC34CC4)n[nH]2)c(F)cn1 (stereo partly drawn) | > 1000 |
| CCOc1cc(-c2cc(C(=O)N3CCC(C(=O)N[C@H]4CC[C@@](O)(C(F)(F)F)CC4)CC34CC4)n[nH]2)c(F)cn1 (single isomer, unassigned) | > 1000 |
| O=C(NC1CCCC1)C1CCN(C(=O)c2cc(-c3ccncc3)[nH]n2)CC1 [N-cyclopentyl-1-[5-(pyridin-4-yl)-1H-pyrazole-3-carbonyl]piperidine-4-carboxamide] | > 1000 |
| COc1cc(-c2cc(C(=O)N3CCC(C(=O)NCC4(C)CCOC4)CC3)n[nH]2)c(Cl)cn1 (stereo not drawn) [1-[5-(5-chloro-2-methoxypyridin-4-yl)-1H-pyrazole-3-carbonyl]-N-[(3-methyloxolan-3-yl)methyl]piperidine-4-carboxamide] | > 1000 |
| COc1cc(-c2cc(C(=O)N3CCC(C(=O)NC4CNC(=O)C4)CC3)n[nH]2)c(Cl)cn1 (stereo not drawn) [1-[5-(5-chloro-2-methoxypyridin-4-yl)-1H-pyrazole-3-carbonyl]-N-(5-oxopyrrolidin-3-yl)piperidine-4-carboxamide] | > 1000 |
| COc1cc(-c2cc(C(=O)N3CCC(C(=O)NCc4cc(C)on4)CC3)n[nH]2)c(Cl)cn1 [1-[5-(5-chloro-2-methoxypyridin-4-yl)-1H-pyrazole-3-carbonyl]-N-[(5-methyl-1,2-oxazol-3-yl)methyl]piperidine-4-carboxamide] | > 1000 |
| COc1cc(-c2cc(C(=O)N3CCC(OC)(C(=O)NCc4cccc(Cl)c4)CC3)n[nH]2)c(Cl)cn1 [1-[5-(5-chloro-2-methoxypyridin-4-yl)-1H-pyrazole-3-carbonyl]-N-[(3-chlorophenyl)methyl]-4-methoxypiperidine-4-carboxamide] | > 1000 |
| COc1cc(-c2cc(C(=O)N3CCC(C(=O)NCc4c(C)cc(C)[nH]c4=O)CC3)n[nH]2)c(Cl)cn1 [1-[5-(5-chloro-2-methoxypyridin-4-yl)-1H-pyrazole-3-carbonyl]-N-[(4,6-dimethyl-2-oxo-1,2-dihydropyridin-3-yl)methyl]piperidine-4-carboxamide] | > 1000 |
| O=C(NC1CCC(F)(F)CC1)C1CCN(C(=O)c2cc(-c3ccncc3)[nH]n2)CC1 [N-(4,4-difluorocyclohexyl)-1-[5-(pyridin-4-yl)-1H-pyrazole-3-carbonyl]piperidine-4-carboxamide] | > 1000 |

same assay, conditions: TR-FRET AC50, Co-R peptide recruitment to PPARγ

| AC50 [nM] | SMILES |
| --- | --- |
| > 1000 | COc1cc(-c2cc(C(=O)N3CCC(C(=O)NC(C)(C)c4ccccc4)CC3)n[nH]2)ccn1 [1-[5-(2-methoxypyridin-4-yl)-1H-pyrazole-3-carbonyl]-N-(2-phenylpropan-2-yl)piperidine-4-carboxamide] |
